Results from publication PMC10938783, “A novel pan-PI3K inhibitor KTC1101 synergizes with anti-PD-1 therapy by targeting tumor suppression and immune activation” (Molecular Cancer, 2024).

How the values were obtained:
[1] = Liver microsome metabolic stability assay; details: mouse, microsomes
[2] = Plasma metabolic stability assay; type: in vitro ADME; details: mouse plasma, 37°C, 120 min incubation
Description: 495 µL of plasma was placed in a 96-well plate and pre-incubated at 37°C for 5 min.

[3] = system: JFCR39 panel of 39 human tumor cell lines; assay: JFCR39 panel growth inhibition, panel statistics; type: cell-based; details: Homo sapiens; JFCR39 panel; read-out: mean GI50 across all 39 cell lines
Description: JFCR39 drug discovery system was used to measure the growth inhibitory activities and identify the target of KTC1101. The JFCR39 panel consists of 39 cell lines seeded in 96-well plates. After 48-h treatment with KTC1101, cell growth was measured using the sulforhodamine B assay. […] The deviation of log GI50 for each cell line from the average log GI50 across the JFCR39 panel was plotted as a fingerprint. MG-MID (mean of Log GI50 values) represents the average log GI50 for all 39 cell lines. The most sensitive and least sensitive cell lines were identified by calculating the difference in their log GI50 values (Range) and the difference between the most sensitive cell line and the average GI50 on the JFCR39 panel (Delta). The fingerprint of KTC1101 was compared with the fingerprints of reference compounds in the database. The Pearson correlation coefficient (r) was calculated (n = 39).

`Cc1ncc2n1-c1ccc(Cl)cc1C(c1ccccc1F)=NC2` [Midazolam, reference compound] gave a half-life at 1 µM [1] of 1.24 min and a microsomal CLint at 1 µM [1] of 1120 µL/min/mg.

`CCN(CC)CCOC(=O)c1ccc(N)cc1` [Procaine, reference compound] gave a half-life at 1 µM [2] of 37.8 min.

`FC(F)c1nc2ccccc2n1-c1nc(N2CCOCC2)nc(N2CCOCC2)n1` [ZSTK474, reference compound] showed a GI50 [3] of 320 nM.
